Data from patent US20220257604A1, “COMPOSITIONS AND METHODS FOR […] INFECTIONS BY REGULATING GLUCOSYLCERAMIDES” (priority 2019, published 2022).

Assays:
[1] = test system: A549 cells; assay type: cell-based, human; conditions: 40 minutes at 37° C., compared with GBA KO cells
[2] = test system: A549 cells; assay type: cell-based, human; conditions: WT A549 cells pretreated with nocodazole; EGF-555 100 ng/mL; 40 minutes at 37° C.; compared with GBA KO cells

SMILES: COC(=O)Nc1nc2ccc(C(=O)c3cccs3)cc2[nH]1 [nocodazole]
- colocalization of influenza with Lamp1 (Manders coefficient) [1]: not as strongly as in WT cells treated with nocodazole
- colocalization of EGF with Lamp1 (Manders coefficient) [2]: not as severe as seen in WT cells treated with nocodazole
